Source: patent US8546397B2, “DNA methylation inhibitors” (The Ohio State University Research Foundation, priority 2010, dated 2013)
Entries after “also recorded” stand apart in the source; their conditions may differ. Read-outs that look alike come from different tables or passages of the source.

Tests used:
[1] = system: Trip10 promoter; experiment: Methylation-specific PCR (MSP) of Trip10; format: cell-based; conditions: MCF7 cells, 7.5 or 30 μM, 5 days of treatment
Procedure: (§1) Cell culture and drug treatment. […] 5-Aza and procainamide were purchased from Sigma-Aldrich. […] Control cells received DMSO vehicle.
Bisulfite conversion. Genomic DNA (0.5 μg) was bisulfite-converted by the EZ DNA Methylation Kit (Zymo) by following the manufacturer's instructions.
qMSP. Bisulfite converted DNAs were PCR-amplified by using appropriate PCR primers. Universal methylated DNAs (Millipore) were used as positive control. Col2A1 was used as a loading control and to amplify the serial diluted (1/10, 1/100 and 1/1000) bisulfite-converted universal methylated DNAs to generate the standard curve for quantization in real time PCR machine (Bio-Rad, iQ5). The methylation percentage was calculated as [(Intensity of Amplifications by Trip10 MSP primer set)×100]/(Intensity of Amplifications by Col2A1 MSP primer set) (%). The qMSP was performed in a 25 μL, of reaction mixture containing 4 μL of template (bisulfate treated DNA), 2 μL of primer pair (2.5 μM), 12.5 μL of 2× reaction buffer (SYBR Green real time PCR Master Mix, Toyobo), and 6.5 μL of H2O.

[2] = system: GSTp1; experiment: Methylation-specific PCR (MSP) of GSTp1; format: cell-based; conditions: MCF7 cells, 7.5 or 30 μM, 5 days of treatment
[3] = system: Trip10 promoter methylation (EGFP expression) in MCF7 cells; conditions: for EGFP expression levels relative to DMSO control: transfected MCF7 cells, different concentrations, 5-day treatment, fluorescence microscopy; for inhibition of EGFP expression (DNA demethylation) in library screening: each compound at 7.5 μM, MCF7 reporter cells
[4] = system: cancer cell growth; conditions: Lee et al., J. Biol. Chem. 280 (2005); cited from earlier work
[5] = system: MCF7 cells; experiment: MTT cell viability assay; conditions: 5-day treatment, dose range
Procedure: (§2) MCF7 breast cancer cells, obtained from American Type Culture Collection, were grown in Minimal Essential Medium (MEM; Invitrogen), supplemented with 10% FBS, 2 mM L-glutamine, and 100 μg/ml penicillin/streptomycin. Cells were cultured at 37° C. in a humidified incubator containing 5% CO2. Medium changes were performed twice weekly and cell passages were performed at 90% confluence. To maintain the two-component constructs in MCF7 cells, 200 μg/mL of hygromycin B (Invitrogen) and 500 μg/mL of Geneticin (G418, Calbiochem) were included in culture medium. 5-Aza and procainamide were purchased from Sigma-Aldrich. Compounds being tested were dissolved in DMSO as stock solutions, and added to culture medium with final DMSO concentrations of 0.3% and 1.2% (v/v) for 7.5 μM and 30 μM of testing drugs, respectively. Control cells received DMSO vehicle. During the 5-day treatment period, medium was changed on the third day of treatment along with the addition of 17β-estradiol (E2, 10 ng/ml).
(§3) Cell viability was assessed using MTT [3-(4,5-dimethylthiazol-2-yl)-2,5-diphenyl-2H-tetrazolium bromide, Sigma-Aldrich) in six replicates. MCF7 cells were seeded at 4,000 cells per well in 96-well plates, and treated with test agents at different concentrations. […] Reduced MTT was solubilized in 200 μl/well of DMSO for determination of absorbance of 595 nm using a microplate reader.

[6] = system: MCF7 cells
Procedure: as §2, §3

[7] = system: EGFP expression in MCF7 cells; experiment: Western blot analysis of EGFP expression; format: cell-based; conditions: 7.5 μM, 5 days
Procedure: as §1
Western blotting. Equal amounts of protein in cell lysates were separated in 10% SDS polyacrylamide gels and then transblotted to nitrocellulose membranes. After blocking with non-fat milk, the membrane was washed and incubated with antibodies against GFP (Abeam) or (β-actin (Sigma-Aldrich). The membrane was washed, and then incubated with anti-rabbit immunoglobulin G-horseradish peroxidase. After final wash, the proteins were visualized by enhanced chemiluminescence. Immunoblotting data were analyzed by NIH Image.
In another set of experiment, cells were treated with 7.5 μM of candidate drugs for 5 days, then the cell lysates were harvested and subjected to Western blot. […] The inconsistence between the Western blot result versus the ELISA/images is not immediately clear. Results obtained from ELISA and Western blot confirmed that IM25 is an effective demethylation agent in inhibiting EGFP expression.

[8] = system: EGFP expression in MCF7 cells; experiment: GFP ELISA of EGFP expression in the two-component reporter system; format: cell-based
Procedure: as §1
ELISA. Enzyme-linked immunosorbent assay (ELISA) was performed using the GFP ELISA kit (Cell Biolabs, San Diego, Calif.) according to the manufacture's instruction.

[9] = system: genome-wide methylation in MCF7 cells; experiment: Differential Methylation Hybridization (DMH) array, genome-wide methylation; format: cell-based
Procedure: Differential Methylation Hybridization (DMH) Array. DMH was performed according to a reported procedure. Yan et al., J Nutr, 132(8 Suppl): p. 2430S-2434S (2002). Amplicons prepared from control (vehicle-treated) MCF7 cells were labeled with Cy5 and the amplicons prepared from drug-treated cells were labeled with Cy3. Labeled DNAs were co-hybridized onto 244K Agilent promoter array. Array hybridization results were normalized with LOWESS and a cutoff of 4 folds was used.
Statistics. ELISA and MTT results were analyzed by F-test. Significant demethylated loci were confirmed by ANOVA from DMH results. Linear regression was used to deduce the global methylation states before and after the demethylation agent treatment.

Structure (SMILES) | methylation level of Trip10 [1] | methylation level of GSTp1 [2] | morphological changes, light microscopy (Vis) [3] | EGFP expression levels relative to DMSO control [3] | concentration required to be effective in DNA demethylation in suppressing cancer cell growth [4] [µM] | suppression of MCF7 cell viability [5] | suppression of MCF7 cell viability [6] | protein level of EGFP [7] | demethylation potency in terms of inhibiting the EGFP expression [8] | global (genome-wide) demethylation ([9]; MCF7 cells, 7.5 μM) | more demethylated loci than after 5-Aza treatment ([9]; out of 244K target loci in Agilent array, significant by ANOVA) | inhibition of EGFP expression (DNA demethylation) in library screening [3]
CCN(CC)CCNC(=O)c1ccc(N)cc1 [procainamide] | weaker effect in demethylating Trip10 promoter | significantly reduced the methylation level of GSTp1 | did not cause morphological changes | dose-dependent, repressive effects on EGFP expression levels | ≥ 50 | did not cause morphological changes [light microscopy (Vis)] or suppression of cell viability |  |  |  |  |  | 
Nc1ncn([C@H]2C[C@H](O)[C@@H](CO)O2)c(=O)n1 [Compound 5-Aza, 5-aza-2′-deoxycytidine] | weaker effect in demethylating Trip10 promoter | significantly reduced the methylation level of GSTp1 | did not cause morphological changes | dose-dependent, repressive effects on EGFP expression levels |  |  | did not cause morphological changes [light microscopy (Vis)] or suppression of cell viability |  |  |  |  | 
O=S(=O)(c1ccc(Br)cc1)N1CCNCC1 [IM9] |  |  |  |  |  |  |  | significantly inhibited |  |  |  | 
COc1ccc(S(=O)(=O)N2CCNCC2)cc1OC [IM25] | greatest potency in facilitating the demethylation of both Trip10 and GSTp1; also recorded: weaker effect in demethylating Trip10 promoter | greatest potency in facilitating the demethylation of both Trip10 and GSTp1; also recorded: significantly reduced the methylation level of GSTp1 |  |  |  |  |  | substantially suppressed | greater demethylation potency than 5-Aza | able to cause global demethylation in MCF7 cells | 5,506 loci | high activity
COc1ccc(O)c(C(C)=O)c1 [CI-4-1] | decreases the methylation level of both genes, but to a lesser extent; also recorded: weaker effect in demethylating Trip10 promoter | decreases the methylation level of both genes, but to a lesser extent; also recorded: significantly reduced the methylation level of GSTp1 |  |  |  |  |  |  |  |  |  | high activity
